# Earlier results in patent US20110059175A9, “ENHANCING SOLUBILITY AND DISSOLUTION RATE OF POORLY SOLUBLE DRUGS” (K.U.LEUVEN RESEARCH AND DEVELOPMENT, priority 2006, published 2011).
# Like-named read-outs stand apart in the source and are kept apart here.
# Columns and labels:
# [1] = not given; remark: listed apart in the source
# [2] = determined; Peeters et al., 2002
# [3] = not given; remark: listed apart in the source
smiles,measurement,setting,value
"NC(=O)N1c2ccccc2C=Cc2ccccc21 [Carbamazepine, 5H-dibenz[b,f]azepine-5-carboxamide]",solubility in water,water,practically insoluble
"C#C[C@]1(O)CC[C@H]2[C@@H]3CCC4=Cc5oncc5C[C@]4(C)[C@H]3CC[C@@]21C [Danazol, 17a-Pregna-2,4-dien-20-yno[2,3-d]-isoxazol-17-ol]",time at which peak concentrations occur,[1]; administered orally,≤ 2 h
same,increase in plasma concentration on doubling the dose,[1]; doubling the dose,30-40%
same,half-life,[1]; in vivo,4 to 5 h
CCC(C)n1ncn(-c2ccc(N3CCN(c4ccc(OCC5COC(Cn6cncn6)(c6ccc(Cl)cc6Cl)O5)cc4)CC3)cc2)c1=O (centres unmarked) [Itraconazole],pKa4,[2],4.0
same,aqueous solubility (S),neutral pH,~0.001 µg/mL
same,aqueous solubility (S),pH 1,4 µg/mL
same,permeability,[3],adequate
